For series [1] the following is noted: acid counterion; cited from earlier work.
Series [2] can be described thus: Salt stability studies (40° C./75% RH for 1 week, XRPD). Format: physicochemical. Here is the method: Recovered salts were placed in an oven at 40° C./75% RH for 1 week, and the resultant materials were analyzed by XRPD to determine any changes to form or crystallinity.
Series [3] is described as follows: 1 week stability tests (40° C./75% RH, 80° C., ambient light; XRPD and UPLC). In kind it is physicochemical.
Series [4] in a line: Solvent solubility of Compound 1 free base (stepwise solvent addition to amorphous material). Format: physicochemical. The note with it: 40 °C, thermodynamic from solid, read-out: Approx. Solubility. The procedure:
A solid Compound 1 was obtained as follows. A […] of solution containing about 330 mg of Compound 1 in warm 1,4-dioxane was divided between 33, 2 mL glass vials (1.5 mL in each). The solutions were frozen and freeze-dried by lyophilization overnight. The resulting material was then analyzed by XRPD to confirm mostly amorphous material.
Approximately 10 mg of amorphous Compound 1 was produced in 32×2 mL glass vials from freeze drying and 100 μL of the appropriate solvent system was added to the appropriate vial. Between each addition, the mixture was checked for dissolution and if no dissolution was apparent, the mixture was heated to about 40° C. and checked again. This procedure was continued until dissolution was observed or until 2 mL had been added (to the compound concentration of <5 mg/mL).

Series [5] is described as follows: Salt disproportionation studies. Format: physicochemical. Particulars: deionized water, 24 h, ambient temperature. The procedure: Salt disproportionation studies were carried out as follows: 20 mg of prepared salts were weighed into a vial and 0.5 mL of deionized water was added. The samples were then agitated for 24 h at ambient temperature. The pH of the samples was taken pre- and post-agitation. Any solids recovered were submitted for XRPD analysis to determine any changes to form.

A further series can be described thus: Thermodynamic solubility. Format: physicochemical. The note with it: for solubility thermodynamic at 24 h: thermodynamic from solid, ambient temperature, read-out: Concentration (thermodynamic solubility). The procedure:
Thermodynamic solubility studies were carried out as follows: 10 mg of prepared salts were suspended in pH 1, 4.5, 6.8 and un-buffered water (300 μL). The pH of the slurries was measured and adjusted accordingly using either 0.2M HCl solution or 0.2M sodium hydroxide solution. The slurries were agitated for 24 hours at ambient temperature using an incubator shaker.

A short description of series [6]: Hydration screen (acetone/water mixtures of various water activities). In kind it is physicochemical. The note with it: ambient. Here is the method: Hydration screen was carried out as follows: 10 mg of prepared salts were suspended in several acetone/water mixtures of various water activities (low: aw=0.281, medium: aw=0.776 and high: aw=0.919) and agitated at ambient temperatures for 24 hr. Any recovered solids were submitted for XRPD analysis to determine any changes to form.

The nature of series [7]: Dynamic vapor sorption (DVS). Format: physicochemical. Here is the method:
Approximately, 10 mg of sample was placed into a mesh vapor sorption balance pan and loaded into a DVS-1 dynamic vapor sorption balance by Surface Measurement Systems. The sample was subjected to a ramping profile from 40-90% relative humidity (RH) at 10% increments, maintaining the sample at each step until a stable weight had been achieved (99.5% step completion). After completion of the sorption cycle, the sample was dried using the same procedure to 0% RH and then a second sorption cycle back to 40% RH. The weight change during the sorption/desorption cycles were plotted, allowing for the hygroscopic nature of the sample to be determined. XRPD analysis was then carried out on any solid retained.

SMILES strings stand for the structures. Like-named read-outs stand apart in the source and are kept apart here.

For `O=C[C@H](O)[C@@H](O)[C@H](O)[C@H](O)C(=O)O` [D-Glucuronic acid], in series [1], the “pKa 1” value is recorded as 3.18.
For `C[C@@H]1CCc2ncc(F)cc2[C@H]2CCCN2c2ccn3ncc(c3n2)C(=O)N1` [Compound 1 edisylate], in series [2] (salt recovered from isopropanol), the “changes to form or crystallinity after stability conditions (XRPD)” value (shortened to “changes to form or crystallinity”) is recorded as “become amorphous”.
Usually solubility stands for how much of the substance goes into solution per volume. With `C[C@@H]1CCc2ncc(F)cc2[C@H]2CCCN2c2ccn3ncc(c3n2)C(=O)N1` [Compound 1, (6R,15R)-9-fluoro-15-methyl-2,11,16,20,21,24-hexaazapentacyclo[16.5.2.0^2,6.0^7,12.0^21,25]pentacosa-1 (24),7,9,11,18(25), 19,22-heptaen-17-one], the “change in purity after 1 week stability test (UPLC)” value in series [3] (40° C./75% RH), in series [3] (80° C.) and in series [3] (ambient light) was “no change in purity” each time. In addition, the “change to form after 1 week stability test (XRPD)” value in series [3] (40° C./75% RH), in series [3] (80° C.) and in series [3] (ambient light) was “no change to form” throughout. In addition, the “average purity after 1 week stability test (UPLC)” value in series [3] (40° C./75% RH (relative humidity test)) is reported as 99.2%; in series [3] (80° C.), 99.3%; in series [3] (ambient light), 99.2%. The solubility in series [4] (organic solvent or mixture, in 1-Propanol) is over 100000 µg/mL; in series [4] (organic solvent or mixture, in 2-Methyl THF), under 5000 µg/mL; in series [4] (organic solvent or mixture, in Cyclohexane), under 5000 µg/mL; in series [4] (organic solvent or mixture, in Cyclopentylmethyl ether) it was under 5000 µg/mL; in series [4] (organic solvent or mixture, in Dichloromethane), over 100000 µg/mL; in series [4] (organic solvent or mixture, in Diisopropyl ether) it was under 5000 µg/mL. Moreover, the solubility is over 100000 µg/mL in series [4] (organic solvent or mixture, in Dimethylformamide); under 5000 µg/mL in series [4] (organic solvent or mixture, in Ethyl acetate); under 5000 µg/mL in series [4] (organic solvent or mixture, in Heptane); under 5000 µg/mL in series [4] (organic solvent or mixture, in Isobutyl acetate); under 5000 µg/mL in series [4] (organic solvent or mixture, in Isopropyl acetate); over 100000 µg/mL in series [4] (organic solvent or mixture, in N,N-Dimethylacetamide). For the same compound, the solubility in series [4] (organic solvent or mixture, in N-Methylpyrrolidone) is over 100000 µg/mL; in series [4] (organic solvent or mixture, in TBME:Heptane (60:40 v/v)), under 5000 µg/mL; in series [4] (organic solvent or mixture, in TBME), under 5000 µg/mL; in series [4] (organic solvent or mixture, in Toluene), under 5000 µg/mL; in series [4] (in Water), under 5000 µg/mL.
On to `CCS(=O)(=O)O` [Ethane sulfonic acid], for which, in series [1], the “pKa 1” value is listed as −2.05.
For `C[C@@H]1CCc2ncc(F)cc2[C@H]2CCCN2c2ccn3ncc(c3n2)C(=O)N1.O=C(O)C[C@H](O)C(=O)O` [Compound 1 L-malate], in series [2] (salt recovered from TBME), the “changes to form or crystallinity” value was “no change to crystallinity and form”.
For the compound `O=C(O)CNC(=O)c1ccccc1` [Hippuric acid], in series [1], the “pKa 1” value is 3.55.
On to `O=C(O)[C@H](O)[C@@H](O)[C@H](O)[C@H](O)CO` [D-Gluconic acid (50% in water), D-Gluconic acid], for which the “pKa 1” value in series [1] was 3.76.
In the case of `C[C@@H]1CCc2ncc(F)cc2[C@H]2CCCN2c2ccn3ncc(c3n2)C(=O)N1.O=C(O)CC(O)(CC(=O)O)C(=O)O` [Compound 1 citrate], the “changes to form or crystallinity” value in series [2] (salt recovered from TBME) and in series [2] (salt recovered from acetone) was “a decrease to crystallinity but no change to form” in each case. Moreover, the “change in purity after 1 week stability test (UPLC)” value in series [3] (40° C./75% RH), in series [3] (80° C.) and in series [3] (ambient light) was “no change to purity” throughout. Moreover, the “change to form after 1 week stability test (XRPD)” value in series [3] (40° C./75% RH), in series [3] (80° C.) and in series [3] (ambient light) was “no change to form” in each case. For the same compound, in series [5], the “material recovered after salt disproportionation study (XRPD)” value is reported as “poorly crystalline citrate salt”. Besides, the solubility thermodynamic at 24 h is 300 µg/mL in “Thermodynamic solubility” (aqueous buffer, pH 4.5 buffer); 900 µg/mL in “Thermodynamic solubility” (pH 6.8 potassium phosphate buffer, aqueous buffer, pH 6.8 buffer); 18600 µg/mL in “Thermodynamic solubility” (simulated gastric fluid, pH 1 buffer); 21000 µg/mL in the series “Thermodynamic solubility” (un-buffered water). Also, the “solids recovered after thermodynamic solubility study (XRPD)” value is “poorly crystalline solids” in “Thermodynamic solubility” (pH 1), “Compound 1 citrate” in the series “Thermodynamic solubility” (pH 4.5), “poorly crystalline free base” in the series “Thermodynamic solubility” (pH 6.8) and “Compound 1 citrate” in the series “Thermodynamic solubility” (un-buffered water). In addition, the “thermodynamic solubility (in words)” value in “Thermodynamic solubility” (pH 1) was “high solubility”; in the series “Thermodynamic solubility” (pH 4.5), “lower solubility”; in the series “Thermodynamic solubility” (pH 6.8), “lower solubility”; in the series “Thermodynamic solubility” (un-buffered water) it was “highly soluble”. Also, the “solid recovered from hydration screen (XRPD)” value is reported as “poorly crystalline citrate salt” in series [6] (high water activity aw=0.919, 24 hr); “poorly crystalline citrate salt” in series [6] (low water activity aw=0.281, 24 hr); “unknown form, referred to here as Form B” in series [6] (medium water activity aw=0.776, 24 hr). Moreover, the “hygroscopicity by DVS (in words)” value in series [7] (DVS humidity conditions) is listed as “low hygroscopicity”. Also, the “change in crystalline form after exposure to DVS conditions (post-DVS XRPD)” value in series [7] (after DVS cycle) is given as “no changes in crystalline form”. Besides, the “mass uptake (DVS)” value in series [7] (at 90% RH) is recorded as “around 1.8%”.
Turning to `C[C@@H]1CCc2ncc(F)cc2[C@H]2CCCN2c2ccn3ncc(c3n2)C(=O)N1.O=C(O)C(=O)O` [Compound 1 oxalate], the “changes to form or crystallinity” value in series [2] (salt recovered from ethanol) was “a change in crystallinity and form”; in series [2] (salt recovered from methanol) it was “no change to crystallinity however, changes to form were seen”.
`O=S(=O)(O)CCO` [2-Hydroxy ethanesulfonic acid]: the “pKa 1” value in series [1] is recorded as 1.66.
As to `C[C@@H]1CCc2ncc(F)cc2[C@H]2CCCN2c2ccn3ncc(c3n2)C(=O)N1.O=C(O)/C=C/C(=O)O` [Compound 1 fumarate], in series [2] (salt recovered from acetone), the “changes to form or crystallinity” value is listed as “a slight decrease to crystallinity however, no change to form”.
With `C[C@@H]1CCc2ncc(F)cc2[C@H]2CCCN2c2ccn3ncc(c3n2)C(=O)N1.Cc1ccc(S(=O)(=O)O)cc1` [Compound 1 tosylate], the “changes to form or crystallinity” value in series [2] (salt recovered from acetone) is recorded as “become amorphous”.
The same measure, in the same setting: with `C[C@@H]1CCc2ncc(F)cc2[C@H]2CCCN2c2ccn3ncc(c3n2)C(=O)N1.O=C(O)CCC(=O)O` [Compound 1 succinate] the entry was “a decrease in crystallinity but no change to form”.
